Tested on: SEM cells
Assay: cell viability relative to DMSO control; higher = less cytotoxic
Conditions: 48 h
Summary of the method: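 In 1536-well plates, 5 μl of leukemia cells were seeded per well: 500 cells/well for NOMO1 or SEM and 1000 cells/well for P12-Ichikawa. Each line had first been adapted for at least four passages in each medium. Library compounds in DMSO were pin-dosed at 11 threefold concentrations between 47 μM and 0.79 nM, and CellTiter-Glo One luminescence was read after 48 h at 37°C. Viability is a per-plate percentage relative to DMSO wells, with cell-free wells as background.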

[1] = HPLM + 10% dialyzed FBS, 0.000781 µM
[2] = HPLM + 10% dialyzed FBS, 0.00234 µM
[3] = HPLM + 10% dialyzed FBS, 0.00702 µM
[4] = HPLM + 10% dialyzed FBS, 0.0211 µM
[5] = HPLM + 10% dialyzed FBS, 0.0632 µM
[6] = HPLM + 10% dialyzed FBS, 0.19 µM
[7] = HPLM + 10% dialyzed FBS, 0.569 µM
[8] = HPLM + 10% dialyzed FBS, 1.71 µM
[9] = HPLM + 10% dialyzed FBS, 5.12 µM
[10] = HPLM + 10% dialyzed FBS, 15.4 µM
[11] = HPLM + 10% dialyzed FBS, 46.1 µM
[12] = RPMI 5 mM glucose + 10% FBS, 0.000781 µM
[13] = RPMI 5 mM glucose + 10% FBS, 0.00234 µM
[14] = RPMI 5 mM glucose + 10% FBS, 0.00702 µM
[15] = RPMI 5 mM glucose + 10% FBS, 0.0211 µM
[16] = RPMI 5 mM glucose + 10% FBS, 0.0632 µM
[17] = RPMI 5 mM glucose + 10% FBS, 0.19 µM
[18] = RPMI 5 mM glucose + 10% FBS, 0.569 µM
[19] = RPMI 5 mM glucose + 10% FBS, 1.71 µM
[20] = RPMI 5 mM glucose + 10% FBS, 5.12 µM
[21] = RPMI 5 mM glucose + 10% FBS, 15.4 µM
[22] = RPMI 5 mM glucose + 10% FBS, 46.1 µM
[23] = RPMI 5 mM glucose + 10% dialyzed FBS, 0.000781 µM
[24] = RPMI 5 mM glucose + 10% dialyzed FBS, 0.00234 µM
[25] = RPMI 5 mM glucose + 10% dialyzed FBS, 0.00702 µM
[26] = RPMI 5 mM glucose + 10% dialyzed FBS, 0.0211 µM
[27] = RPMI 5 mM glucose + 10% dialyzed FBS, 0.0632 µM
[28] = RPMI 5 mM glucose + 10% dialyzed FBS, 0.19 µM
[29] = RPMI 5 mM glucose + 10% dialyzed FBS, 0.569 µM
[30] = RPMI 5 mM glucose + 10% dialyzed FBS, 1.71 µM
[31] = RPMI 5 mM glucose + 10% dialyzed FBS, 5.12 µM
[32] = RPMI 5 mM glucose + 10% dialyzed FBS, 15.4 µM
[33] = RPMI 5 mM glucose + 10% dialyzed FBS, 46.1 µM

SMILES | cell viability [1] [%] | cell viability [2] [%] | cell viability [3] [%] | cell viability [4] [%] | cell viability [5] [%] | cell viability [6] [%] | cell viability [7] [%] | cell viability [8] [%] | cell viability [9] [%] | cell viability [10] [%] | cell viability [11] [%] | cell viability [12] [%] | cell viability [13] [%] | cell viability [14] [%] | cell viability [15] [%] | cell viability [16] [%] | cell viability [17] [%] | cell viability [18] [%] | cell viability [19] [%] | cell viability [20] [%] | cell viability [21] [%] | cell viability [22] [%] | cell viability [23] [%] | cell viability [24] [%] | cell viability [25] [%] | cell viability [26] [%] | cell viability [27] [%] | cell viability [28] [%] | cell viability [29] [%] | cell viability [30] [%] | cell viability [31] [%] | cell viability [32] [%] | cell viability [33] [%]
COCCCOc1ccnc(C[S+]([O-])c2nc3ccccc3[nH]2)c1C (stereo unspecified) | 97 | 102 | 110 | 115 | 107 | 113 | 127 | 109 | 102 | 109 | 94.3 | 72.3 | 72.1 | 71.3 | 82.6 | 73.1 | 79 | 78.6 | 76.7 | 65.6 | 81.3 | 75.2 | 97.9 | 110 | 91.3 | 107 | 98.8 | 103 | 109 | 100 | 115 | 108 | 108
CC(C[N+](C)(C)C)OC(N)=O (stereo unspecified) | 107 | 114 | 83.5 | 98.8 | 96.1 | 106 | 104 | 116 | 106 | 110 | 97.6 | 105 | 105 | 87 | 128 | 117 | 132 | 120 | 124 | 113 | 120 | 109 | 116 | 123 | 88.7 | 114 | 120 | 107 | 125 | 108 | 112 | 116 | 108
CC(=O)OCC(=O)[C@@]12OC(C)(C)O[C@@H]1C[C@H]3[C@@H]4C[C@H](F)C/5=C/C(=O)/C=C\[C@]5(C)[C@@]4(F)[C@@H](O)C[C@]23C | 67.2 | 84.1 | 74.8 | 70.2 | 79.9 | 78.5 | 21.4 | 20.6 | 74.8 | 89.7 | 67.8 | 103 | 104 | 85.4 | 94.7 | 106 | 99.4 | 24.7 | 21.1 | 78.5 | 78.2 | 76.3 | 92.5 | 102 | 87.9 | 85.2 | 90 | 68.9 | 15.7 | 10.2 | 106 | 95.4 | 75.4
O=[S+]([O-])(O)c1ccc2cc(/N=N/c3cc([S+](=O)([O-])O)c4cccnc4c3O)ccc2c1 | 115 | 120 | 120 | 28.8 | 133 | 132 | 126 | 117 | 120 | 119 | 39.9 | 115 | 124 | 113 | 17.8 | 115 | 114 | 121 | 112 | 103 | 105 | 25.5 | – | – | – | – | – | – | – | – | – | – | –
CCCC1=N[N](C)C2=C1\N=C(/NC2=O)C3=CC(=CC=C3OCC)[S+]([O-])(=O)N4CCN(C)CC4 | 44.2 | 88.3 | 87.9 | 94.3 | 74 | 88.4 | 79.8 | 80.8 | 87 | 46.3 | 2.85 | 46.9 | 108 | 97.7 | 85.9 | 66.6 | 79.7 | 74 | 78 | 86.9 | 46.2 | 32.2 | 46.1 | 94.2 | 88.5 | 87.4 | 61.7 | 81.2 | 89.9 | 102 | 88.1 | 61.9 | 4.25
CNC(=O)c1ccc(N2C(=S)N(c3ccc(C#N)c(C(F)(F)F)c3)C(=O)C2(C)C)cc1F | 87.9 | 96.9 | 42.8 | 113 | 105 | 113 | 112 | 109 | 117 | 121 | 105 | 71.3 | 74 | 9.73 | 74.8 | 73.9 | 81.9 | 86.3 | 72.2 | 90.1 | 76.1 | 64.1 | 87.7 | 99.6 | 31.2 | 116 | 109 | 111 | 104 | 110 | 104 | 110 | 87.9
C[C@]12CC[C@@H]3c4ccc(O)cc4CC[C@H]3[C@@H]1CC[C@@H]2O | 109 | 110 | 121 | 115 | 98.9 | 119 | 113 | 97.4 | 95.7 | 85.2 | 23.4 | 124 | 124 | 129 | 142 | 125 | 123 | 118 | 114 | 113 | 84 | 21.1 | 127 | 118 | 124 | 144 | 116 | 121 | 114 | 115 | 105 | 82 | 16.5
O=[N+]([O-])c1ccc(Nc2ccccc2-c2ccccc2)c2nonc12 | 71.9 | 79.4 | 90.5 | 84.4 | 63.4 | 62 | 68.8 | 62.8 | 78.1 | 48.7 | 26.4 | 93.5 | 91.7 | 100 | 102 | 77.6 | 52.2 | 83.8 | 48.9 | 61.6 | 32.2 | 27 | 72.6 | 70.5 | 80.5 | 90.9 | 58.8 | 62.8 | 64.8 | 30.9 | 54.4 | 42.3 | 26.1
CN1CCN(Cc2ccc(NC(=O)Nc3ccc(Oc4cc(NC(=O)C5CC5)ncn4)cc3)cc2C(F)(F)F)CC1 | 86.5 | 72.2 | 54.1 | 53.4 | 51.4 | 25 | 6.43 | 5.04 | 3.88 | 3.17 | 0.399 | 103 | 80.1 | 53.9 | 49.1 | 41.6 | 23 | 4.1 | 2.81 | 2.25 | 1.45 | 0.371 | 94.9 | 72.4 | 44.6 | 36.5 | 46 | 23.7 | 5.01 | 4.22 | 3.2 | 2.37 | 0.407
O=C(O)[C@@H](c1ccc(OCc2ccc3ccccc3n2)cc1)C1CCCC1 | 116 | 124 | 122 | 114 | 123 | 45.5 | 125 | 114 | 43.4 | 113 | 95.6 | – | – | – | – | – | – | – | – | – | – | – | 109 | 151 | 120 | 127 | 148 | 52 | 129 | 124 | 19.4 | 114 | 83.1
NC/1=N/C(=O)N(C[C@@H](CO)OC[P](O)(O)=O)/C=C1 | 115 | 130 | 120 | 126 | 139 | 126 | 120 | 125 | 106 | 105 | 94.6 | 106 | 103 | 117 | 99.2 | 111 | 113 | 98.2 | 95.2 | 100 | 97.7 | 69.7 | 136 | 111 | 115 | 122 | 131 | 106 | 128 | 123 | 101 | 111 | 100
Cc1cccc(N(C)C(=S)Oc2ccc3ccccc3c2)c1 | 79.4 | 91.8 | 83.8 | 98.8 | 90.7 | 104 | 96.8 | 84.7 | 106 | 96.5 | 87.2 | 79.7 | 102 | 96.1 | 90.8 | 108 | 86.7 | 110 | 109 | 107 | 99.4 | 85 | 95.6 | 114 | 102 | 108 | 108 | 96.7 | 129 | 117 | 115 | 101 | 89
COc1cc(NC(=O)c2ccc(-c3ccc(Cl)cc3)o2)cc(OC)c1 | 73 | 94.6 | 93.6 | 106 | 98.5 | 114 | 116 | 107 | 107 | 94.3 | 107 | 77.7 | 90 | 103 | 104 | 107 | 96.8 | 94.2 | 86.4 | 102 | 105 | 98.9 | 81.2 | 96.2 | 95.9 | 102 | 105 | 95.4 | 96.4 | 89.7 | 99.8 | 109 | 90.1
CC(=O)Oc1cc2c(s1)CCN(C(C(=O)C1CC1)c1ccccc1F)C2.Cl (stereo unspecified) | 84.3 | 102 | 103 | 113 | 115 | 112 | 110 | 122 | 120 | 101 | 68.5 | 71.3 | 96.9 | 88.7 | 96.7 | 90.8 | 101 | 94.2 | 100 | 101 | 82.1 | 53.3 | 76.1 | 106 | 103 | 111 | 107 | 114 | 110 | 117 | 115 | 78.6 | 54.4
CCC[C@@H](C=O)NC(=O)[C@H](CC(C)C)NC(=O)[C@H](CC(C)C)NC(=O)OCc1ccccc1 | 107 | 111 | 106 | 121 | 124 | 117 | 132 | 92.7 | 8.49 | 8.38 | 6.36 | 105 | 103 | 125 | 111 | 129 | 130 | 55.3 | 8.42 | 8.05 | 8.14 | 6.25 | 97.6 | 101 | 120 | 116 | 134 | 119 | 118 | 45.7 | 9.18 | 8.63 | 6.53
C=CC(=O)Nc1cccc(Oc2nc(Nc3ccc(N4CCN(C)CC4)cc3OC)ncc2Cl)c1 | 58.4 | 72.7 | 56.4 | 65.8 | 74 | 81.1 | 72.3 | 68.5 | 33.2 | 48 | 13.3 | 80.4 | 89.2 | 60.5 | 88.2 | 94.2 | 91.2 | 56.4 | 65.3 | 22.6 | 41.6 | 5.05 | 62.5 | 69.8 | 52.6 | 58.2 | 70.8 | 72.9 | 64.1 | 42.3 | 24.1 | 41.8 | 18

From the supplement of paper PMC11451515
